Experimental data from PubChem BioAssay AID652188 (Johns Hopkins Ion Channel Center, 2013).
Calls of active or inactive are those of the source.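 The calls were made as follows: active = peak TASK1 channel inhibition over 30% at some tested dose, plus a fitted dose response curve; inactive = no inhibition at any dose, or no curve fitted.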

Tests used:
[1] = nonspecific flux block, untransfected cells – cell-based, FluxOR thallium flux, CRC, counter-screen for TASK1 inhibitor project, SAR follow-up (AID 652188); conditions: CHO parental cells, FluxOR thallium flux counter-screen; at 30 µM (top of the series)
[2] = test system: CHO parental cells, FluxOR thallium flux counter-screen; experiment: as above

CCCC(=O)C1CCN(c2ncnc3c2CN(C(=O)c2ccc(-c4ccccc4)cc2)CC3)CC1
flux ratio, lower = inhibition [1]: 0.302 (inactive)

O=C(Nc1cccc(NC(=O)c2cccc(F)c2)c1)c1ccccc1
flux ratio, lower = inhibition [1]: 0.326 (inactive)

COc1ccc(F)cc1C(=O)Nc1cccc(NC(=O)c2cccc(C)c2)c1
flux ratio, lower = inhibition [1]: 0.311 (inactive)

COc1ccccc1C(=O)Nc1cc(NC(=O)c2ccccc2C(C)C)ccc1F
flux ratio, lower = inhibition [1]: 0.298 (inactive)

Cc1cccc(C(=O)Nc2cccc(NC(=O)c3cccc(F)c3)c2)c1
flux ratio, lower = inhibition [1]: 0.313 (inactive)

Cc1cccc(C(=O)Nc2cccc(NC(=O)c3cccs3)c2)c1
flux ratio, lower = inhibition [1]: 0.334 (inactive)

COc1c(F)cccc1C(=O)Nc1cccc(NC(=O)c2cccc(C)c2)c1
flux ratio, lower = inhibition [1]: 0.317 (inactive)

Cc1cccc(C(=O)Nc2cccc(NC(=O)c3ccncc3)c2)c1
flux ratio, lower = inhibition [1]: 0.32 (inactive)

COc1cnccc1C(=O)Nc1cccc(NC(=O)c2cccc(C)c2)c1
flux ratio, lower = inhibition [1]: 0.339 (inactive)

Cc1cccc(C(=O)Nc2cccc(NC(=O)c3ccccc3)c2)c1
flux ratio, lower = inhibition [1]: 0.319 (inactive)

COc1ccccc1C(=O)Nc1cc(NC(=O)c2cccc(C)c2)ccc1F
flux ratio, lower = inhibition [1]: 0.306 (inactive)

COc1ccccc1C(=O)Nc1cccc(NC(=O)c2cccc(C)c2)c1
flux ratio, lower = inhibition [1]: 0.322 (inactive)

Cc1cccc(C(=O)Nc2cccc(NC(=O)c3cccc(C(F)(F)F)c3)c2)c1
flux ratio, lower = inhibition [1]: 0.304 (inactive)

COc1ccc(CC(=O)NCc2ccccc2-c2ccccc2C(=O)NCc2ccc(F)cc2F)cc1
flux ratio, lower = inhibition [1]: 0.295 (inactive)

O=C(Nc1cccc(NC(=O)c2ccccc2)c1)c1ccccc1
IC50 [2]: 240 nM

CCOc1ccccc1C(=O)Nc1cccc(NC(=O)c2cccc(C)c2)c1
IC50 [2]: 1240 nM
